Assay results reported in US20140140929A1, “CHEMICALLY MODIFIED CELL-PENETRATING PEPTIDES FOR IMPROVED DELIVERY OF GENE MODULATING COMPOUNDS” (priority 2008, published 2014).

Key:
HPRT1 in MEFs = experiment: siRNA treatment, HPRT1 in MEFs; format: cell-based; conditions: target HPRT1
Method: (§1) Phosphorothioate 2′O methyl RNA (SCO) or anti-miR21 2′OMe RNA (with 33% LNA substitution) was mixed with CPPs at different molar ratios (1:0-1:20) in MQ water in 1/10th of the final treatment volume (i.e 50 μl). Complexes were formed for 30 min in RT and meanwhile media was replaced in 24-well plates to fresh serum free DMEM (450 μl). Thereafter, complexes were added to each well. The final concentration of SCO was kept constant at 200 nM and peptide concentration was varied or complexes were formed at a given molar ratio using 400 nM SCO and then serial diluted in water. Complexes were prepared according to manufacturers protocol when using the commercial transfection reagent Lipofectamine 2000 (Promega, USA). PepFect/siRNA complexes were essentially formed in a similar manner but using 100 nM siRNA as starting concentrations and molar ratios ranging from 20-40. Lower concentrations were generated by doing serial dilutions.

luciferase in U2OS cells = experiment: siRNA treatment, luciferase down-regulation in luciferase-stable osteosarcoma cells (U2OS); format: cell-based
Method: as §1, with “PepFect/siRNA complexes were essentially formed in a similar manner but using 100 nM siRNA as starting concentrations and molar ratios ranging from 20-40.” left out
siRNA transfections: Different luciferase-stable cell lines including HeLa, BHK21, and U2OS cells were seeded as in the other experiments. Cells were treated for 4 h in serum-free or full growth media after which 1 ml of full growth media was added to the wells. Cells were lysed and measured for luminescence 20 h later as described previously. The luminescence was normalized to protein content in each well and the RLU/mg value from untreated cells were considered as 100%. Different treatments are then presented as % of untreated cells.

HPRT1 in primary glia = experiment: siRNA treatment, HPRT1 in primary mixed glial cell culture; format: cell-based, rat
Method: RNAi in rat primary mixed glial cell culture following treatment with siRNA targeting HPRT1.
as §1

various cell types = experiment: siRNA delivery in various cell types, down-regulation of gene expression; format: cell-based; conditions: low siRNA concentrations
Method: as §1
siRNA transfections: Different luciferase-stable cell lines including HeLa, BHK21, and U2OS cells were seeded as in the other experiments. […] Cells were lysed and measured for luminescence 20 h later as described previously. The luminescence was normalized to protein content in each well and the RLU/mg value from untreated cells were considered as 100%. […]

HPRT1 in U2OS cells = experiment: siRNA treatment, HPRT1 mRNA down-regulation in osteosarcoma cells (U2OS), RT-PCR; format: cell-based
Method: Down-regulation of HPRT1 mRNA in osteosarcoma cells. […] In these experiments, Dicer-substrate siRNAs (longer versions that are processed by dicer) were used. Cells were treated in serum free media and mRNA levels were analyzed by RT-PCR 24 h post transfection.
as §1

HPRT1 in Jurkat cells = experiment: siRNA treatment, HPRT1 in Jurkat cells; format: cell-based; conditions: target HPRT1
Method: as §1

Jurkat suspension cells = experiment: Transfection of EGFP plasmids in Jurkat suspension cells (FACS); format: cell-based; conditions: 24 h, serum free media
Method: EGFP expression was assessed 24 h after transfection in serum free media by FACS. b) Histogram of corresponding Jurkat transfection. Although the overall transfection levels are rather low, PF6 has the ability to transfect a large fraction of cells in the population. c) Jurkat plasmid transfection not dependent on cell confluenncy. Intriguingly, with PF6 it is possible to transfect the majority of cells independent of confluency.
Formation of plasmid/CPP complexes: 0.5 μg of pGL3 luciferase expressing plasmid or pEGFP-C1 plasmid was mixed with CPPs at different charge ratios (1:1-1:4) in MQ water in 1/10th of the final treatment volume (50 μl). After 30 min, complexes were added to cells grown in 450 μl of fresh serum free media. When using Lipofectamine 2000, complexes were prepared according to manufacturers protocol (Promega, USA).
Plasmid transfections: For plasmid transfection, 80 000 CHO or Jurkat cells were seeded 24 h before treatment. Cells were treated for 4 h with pGL3/CPP complexes in serum free DMEMF12 after which media was replaced for full growth media for additionally 20 h. Cells were lysed and analyzed in accordance with the splice correction assay.

HPRT1 in N2a cells = experiment: siRNA treatment, HPRT1 in N2a cells; format: cell-based; conditions: target HPRT1
Method: as §1

TACE in SHSY5Y cells = experiment: siRNA treatment, TACE in SHSY5Y cells; format: cell-based, human; conditions: target TACE
Method: as §1

[1] = siRNA concentration, U2OS, target Luciferase

Substance: Stearyl-AGYLLGK[KK2sa4qn4]INLKALAALAKKIL-NH2 [Pepfect 6]
- 70% inhibition (HPRT1 in MEFs; siRNA concentration): 10 to 25 nM
- 90% inhibition (HPRT1 in MEFs; siRNA concentration): 25 to 50 nM
- Compared to Lipofectamine (HPRT1 in MEFs): better
- Compared to Lipofectamine (luciferase in U2OS cells; U2OS, target Luciferase): superior
- lowest siRNA concentration with significant RNAi (luciferase in U2OS cells; molar ratio 80): 5 nM
- 70% inhibition (luciferase in U2OS cells; [1]): 5 to 10 nM
- 90% inhibition (luciferase in U2OS cells; [1]): 10 to 20 nM
- Compared to Lipofectamine (HPRT1 in primary glia; Primary glia, target HPRT1): superior
- siRNA-mediated gene silencing compared with Lipofectamine 2000 (HPRT1 in primary glia; in serum and under serum free conditions): significantly more potent than Lipofectamine 2000
- 90% inhibition (HPRT1 in primary glia; siRNA concentration, Primary glia, target HPRT1): 25 to 50 nM
- RNAi, result in words (various cell types): almost a complete RNAi
- HPRT1 mRNA knock-down, result in words (HPRT1 in U2OS cells; Dicer-substrate siRNAs, both molar ratios, all concentrations, serum free media, 24 h): Significant knock-down
- Compared to Lipofectamine (HPRT1 in U2OS cells; U2OS, target HPRT1): superior
- 90% inhibition (HPRT1 in U2OS cells; siRNA concentration, U2OS, target HPRT1): 25 nM
- 90% inhibition (HPRT1 in Jurkat cells; siRNA concentration): 100 nM
- Compared to Lipofectamine (HPRT1 in Jurkat cells): superior
- EGFP plasmid transfection, result in words (Jurkat suspension cells): significant transfections
- 70% inhibition (HPRT1 in N2a cells; siRNA concentration): 25 to 50 nM
- 90% inhibition (HPRT1 in N2a cells; siRNA concentration): 50 to 100 nM
- Compared to Lipofectamine (HPRT1 in N2a cells): better
- 90% inhibition (TACE in SHSY5Y cells; siRNA concentration): 50 to 70 nM
- Compared to Lipofectamine (TACE in SHSY5Y cells): superior
